Experimental data from patent publication US9532994B2, “Agents and methods for enhancing bone formation by oxysterols in combination with bone morphogenic proteins” (THE REGENTS OF THE UNIVERSITY OF CALIFORNIA, priority 2003, dated 2017).

What was measured:
[1] = test system: M2-10B4 mouse marrow stromal cell line; test: Alkaline phosphatase (ALP) activity assay in M2 cells; format: cell-based; conditions: for induction of alkaline phosphatase activity: 10 μM oxysterols, osteogenic medium, 3 days (FIG. 3A); for dose- and time-dependence of induction of alkaline phosphatase activity: concentrations between 0.5-10 μM; for alkaline phosphatase activity: ligands used at 10 μM, ±SD, control vehicle C: 18±2, p<0.01 for C vs. all ligands
Method: Cells: M2-10B4 mouse marrow stromal cell line obtained from American Type Culture Collection (ATCC, Rockville, Md., U.S.A.) was derived from bone marrow stromal cells of a (C57BL/6J×C3H/HeJ) F1 mouse, and support human and murine myelopoiesis in long-term cultures (as per ATCC) and have the ability to differentiate into osteoblastic and adipocytic cells. Unless specified, these cells were cultured in RPMI 1640 containing 10% heat-inactivated FBS, and supplemented with 1 mM sodium pyruvate, 100 U/ml penicillin, and 100 […] (all from Irvine Scientific).
Alkaline phosphatase activity assay: Colorimetric alkaline phosphatase (ALP) activity assay on whole cell extracts was performed as previously described. […]
Test 2: M2 cells were grown in RPMI medium containing 10% fetal bovine serum (FBS). At confluence, the cells were treated in RPMI containing 5% FBS plus ascorbate at 50 μg/ml and β-glycerophosphate at 3 mM to induce osteoblastic differentiation. Adipogenic differentiation was induced by treating the cells in growth medium plus 10 ˜M troglitazone. A vehicle (C) or oxysterol treatment was applied to cells in a variety of doses (in μM): 20S-Hydroxycholesterol, 25-Hydroxycholesterol, 22R-Hydroxycholesterol; 22S-Hydroxycholesterol; 7-ketocholesterol. Cells were always treated at 90% confluence. After 4 days, alkaline phosphatase activity was determined in whole cell lysates and normalized to protein. Alternatively, MSC cultures were prepared and treated with oxysterols as described above. Cells were treated at 90% confluence with the combination of 22R-Hydroxycholesterol and 20S-Hydroxycholesterol, each at 5 μM, for 4 to 96 hours. The oxysterols where removed and fresh media without oxysterols was added for a total duration of 96 hours. Alkaline phosphatase activity was measured in whole cell extracts and normalized to protein.
M2 cells were treated at 90% confluence with vehicle (C), or oxysterols 20S-Hydroxycholesterol or 22S-Hydroxycholesterol at (0.5 μM) or (1 μM), in the absence or presence of cytochrome P450 inhibitor (SKF525A 10 μM (+)). MSC cultures were also treated at 90% confluence with vehicle (C), or 20S-Hydroxycholesterol (2 μM), in the absence or presence of cytochrome P450 […] (Benzylimidazole 50 μM) or SKF525A (10 μM). After 4 days, alkaline phosphatase activity was measured in whole cell extracts and normalized to protein. […]

[2] = test system: osteocalcin mRNA in M2 cells; test: Northern blotting for osteocalcin mRNA in M2 cells; format: cell-based, mouse; conditions: 0.5-10 μM, as many as 14 days, data not shown
Method: The extent of gene induction was determined by densitometry.
After 4 and 8 days, total RNA from duplicate samples was isolated and analyzed for osteocalcin (Osc) and 28S rRNA expression by Northern blotting as described. FIG. 3E is a radiogram of Northern blotting for osteocalcin mRNA in M2 cells exposed to a control or combination of oxysterols for 4 or 8 days. FIG. 3F is a bar graph depicting the relative demsometric units of osteocalcin mRNA in M2 cells exposed to a control or combination of oxysterols for 4 or 8 days. Data from densitometric analysis of the Northern blot is shown in (F) as the average of duplicate samples, normalized to 28S rRNA.
Next, a combination of 22R and 20S oxysterols (RS, 2.5 μM each) were added in the presence or absence of SC as indicated. After 3 days, ALP activity was measured as described earlier. […] (B) M2 cells were treated as described in (A) and after 10 days matrix mineralization in cultures was quantified by a ^45Ca incorporation assay as described earlier. Results from a representative of three experiments are shown, reported as the mean±SD of quadruplicate determinations, normalized to protein concentration. (C) M2 cells were pretreated with 20 μM SC for 4 hours, followed by the addition of RS in the presence or absence of SC as described above. After 8 days, total RNA was isolated and analyzed for osteocalcin (Osc) and 18S rRNA expression by Northern blotting as previously described. Data from densitometric analysis of the Northern blot is shown in (D) as the average of duplicate samples, normalized to 18S rRNA. (E) M2 cells at confluence were pretreated for 2 hours with control vehicle (C), or PLA2 inhibitors ACA (25 μM) and MCOCF3 (MC, 20 μM), in osteogenic medium. Next, a combination of 22R and 20S oxysterols (RS, 2.5 μM) was added in the presence or absence of the inhibitors as indicated. After 3 days, ALP activity was measured as previously described. Data from a representative of three experiments are shown, reported as the mean±SD of quadruplicate determinations, normalized to protein concentration (p<0.01 for RS vs. RS+ACA and RS+MC). (F) M2 cells were treated as described in (E).

SMILES | induction of alkaline phosphatase activity [1] | dose- and time-dependence of induction of alkaline phosphatase activity [1] | alkaline phosphatase activity [1] | induction of osteocalcin gene expression, individual oxysterols [2]
CC(C)CCC[C@](C)(O)[C@H]1CC[C@H]2[C@@H]3CC=C4C[C@@H](O)CC[C@]4(C)[C@H]3CC[C@@]21C [20S, 20(S)-hydroxycholesterol] | induced | dose- and time-dependent | 140±12 activity units/mg protein | unable to induce
CC(C)CC[C@@H](O)[C@@H](C)[C@H]1CC[C@H]2[C@@H]3CC=C4C[C@@H](O)CC[C@]4(C)[C@H]3CC[C@]12C [22R, 22(R)-hydroxycholesterol] | induced | dose- and time-dependent | 45±5 activity units/mg protein | unable to induce
CC(C)CC[C@H](O)[C@@H](C)[C@H]1CC[C@H]2[C@@H]3CC=C4C[C@@H](O)CC[C@]4(C)[C@H]3CC[C@]12C [22S, 22(S)-hydroxycholesterol] | induced | dose- and time-dependent |  | unable to induce
